Experimental data published in US20260274833A1 (NiKang Therapeutics, Inc., priority 2022, published 2026).

Biological target: T1, CDK2 (Homo sapiens, UniProt P24941)
T1 construct: endogenous in cells; host or cells: OVCAR3 cells
Test: Phospho-RB measurement in OVCAR3 cells (HTRF phospho-RB cellular kit)
Assay type: cell-based
Conditions: inhibition of RB phosphorylation at S807/811 (HTRF, TR-FRET ratio 665/620), 24 h compound treatment, 0.3 to 10,000 nM
How it was run: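 IC50 came from a four-parameter logistic fit of the DMSO-normalized TR-FRET ratio (665/620 nm). That ratio reflects RB phosphorylation at S807/811, read with an HTRF antibody pair 4 h after adding lysate at room temperature.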

| SMILES | IC50 [nM] |
| --- | --- |
| CC1(C)CN(S(=O)(=O)Nc2cccc(-c3nc(C45CC(C(F)(F)F)(C4)C5)sc3-c3ccnc(N[C@H]4CC[C@H](S(C)(=O)=O)CC4)n3)c2F)c2ccccc21 [Example 291, N-(2-fluoro-3-(5-(2-(((1r,4r)-4-(methylsulfonyl)cyclohexyl)amino)pyrimidin-4-yl)-2-(3-(trifluoromethyl)-bicyclo[1.1.1]pentan-1-yl)thiazol-4-yl)phenyl)-3,3-dimethylindoline-1-sulfonamide] | 2750 |
| CS(=O)(=O)[C@H]1CC[C@H](Nc2nccc(-c3sc(N4C5CCC4CN(C4CC(F)(F)C4)C5)nc3-c3cccc(NS(=O)(=O)N4CCc5ccc(C(F)(F)F)cc54)c3F)n2)CC1 [Example 295, N-(3-(2-(3-(3,3-difluorocyclobutyl)-3,8-diazabicyclo[3.2.1]octan-8-yl)-5-(2-(((1r,4r)-4-(methylsulfonyl)cyclohexyl)-amino)pyrimidin-4-yl)thiazol-4-yl)-2-fluorophenyl)-6-(trifluoromethyl)-indoline-1-sulfonamide] | 536 |
| CS(=O)(=O)[C@H]1CC[C@H](Nc2nccc(-c3sc(N4C5CCC4CN(CC(F)(F)F)C5)nc3-c3cccc(NS(=O)(=O)N4CCc5ccc(C(F)(F)F)cc54)c3F)n2)CC1 [Example 296, N-(2-fluoro-3-(5-(2-(((1r,4r)-4-(methylsulfonyl)cyclohexyl)amino)-pyrimidin-4-yl)-2-(3-(2,2,2-trifluoroethyl)-3,8-diazabicyclo[3.2.1]-octan-8-yl)thiazol-4-yl)phenyl)-6-(trifluoromethyl) indoline-1-sulfonamide] | 1190 |

Stronger by IC50, values ahead:

| IC50 [nM] | SMILES |
| --- | --- |
| 110 | CC(C)(c1nc(-c2cccc(NS(=O)(=O)N3CCc4ccc(Cl)cc43)c2F)c(-c2ccnc(N[C@H]3CC[C@H](S(C)(=O)=O)CC3)n2)s1)C(F)(F)F [Example 289, 6-chloro-N-(2-fluoro-3-(5-(2-(((1r,4r)-4-(methylsulfonyl)cyclohexyl)amino)pyrimidin-4-yl)-2-(1,1,1-trifluoro-2-methyl-propan-2-yl)thiazol-4-yl)phenyl)-indoline-1-sulfonamide] |
| 298 | CC(C)(c1nc(-c2cccc(NS(=O)(=O)N3CCc4ccc(C(F)(F)F)cc43)c2F)c(-c2ccnc(N[C@H]3CC[C@H](S(C)(=O)=O)CC3)n2)s1)C(F)(F)F [Example 290, N-(2-fluoro-3-(5-(2-(((1r,4r)-4-(methylsulfonyl)cyclohexyl)amino)-pyrimidin-4-yl)-2-(1,1,1-trifluoro-2-methylpropan-2-yl)thiazol-4-yl)phenyl)-6-(trifluoromethyl) indoline-1-sulfonamide] |
| 29.9 | CN1CC2CCC(C1)N2c1nc(-c2cccc(NS(=O)(=O)N3CCc4ccc(C(F)(F)F)cc43)c2F)c(-c2ccnc(NC3CC4(C3)CS(=O)(=O)C4)n2)s1 [Example 292, N-(3-(5~(2-((2,2-dioxido-2-thiaspiro-[3.3]heptan-6-yl)amino)pyrimidin-4-yl)-2-(3-methyl-3,8-diazabicyclo[3.2.1]-octan-8-yl)thiazol-4-yl)-2-fluorophenyl)-6-(trifluoromethyl) indoline-1-sulfonamide] |
| 372 | O=S1(=O)CC2(CC(Nc3nccc(-c4sc(N5C6CCC5CN(C5CC(F)(F)C5)C6)nc4-c4cccc(NS(=O)(=O)N5CCc6ccc(C(F)(F)F)cc65)c4F)n3)C2)C1 [Example 293, N-(3-(2-(3-(3,3-difluorocyclobutyl)-3,8-diazabicyclo[3.2.1]octan-8-yl)-5-(2-((2,2-dioxido-2-thiaspiro[3.3]heptan-6-yl)amino)pyrimidin-4-yl)thiazol-4-yl)-2-fluorophenyl)-6-(trifluoromethyl)-indoline-1-sulfonamide] |
| 42.9 | CN1CC2CCC(C1)N2c1nc(-c2cccc(NS(=O)(=O)N3CCc4ccc(C(F)(F)F)cc43)c2F)c(-c2ccnc(N[C@H]3CC[C@H](S(C)(=O)=O)CC3)n2)s1 [Example 294, N-(2-fluoro-3-(2-(3-methyl-3,8-diazabicyclo[3.2.1]octan-8-yl)-5-(2-(((1r,4r)-4-(methylsulfonyl)cyclohexyl)-amino)pyrimidin-4-yl)thiazol-4-yl)phenyl)-6-(trifluoromethyl) indoline-1-sulfonamide] |
